Data reported in patent US4259257A, “1-Phenyl-2-amino-1,3-propanediol-N-aryloxyalkyl derivatives” (Egyt Gyogyszervegyeszeti Gyar, priority 1977, dated 1981).
Structures can show the parent of a compound that is named as a salt. Where two headings read alike, the source gives them in different places.

Legend:
[1] = system: isolated rat ileums; assay: Smooth muscle relaxing activity by the method of Brock et al. on isolated rat ileums; details: for Smooth muscle relaxant activity EC50: isolated rat ileums; for Smooth muscle relaxant activity, relative efficiency: related to Papaverine (1.0)
Text: For the determination of smooth muscle relaxing activity the method of Brock et al. (Brock, N, et al., Arch. Exper. Pathol. u. Pharmacol., 215, 492/1952/) was used on isolated rat ileums. Papaverine was used as reference compound. In Table 4 below the EC50 -values and the relative efficiencies calculated on the basis of the following equation are also listed: [formula]

[2] = in vivo; details: rat, iv, read-out: LD50-value (acute intravenous toxicity)
Protocol: The acute intravenous toxicity was determined on rats of both sexes, using five animals for each doses. The relative anti-anginose activity was calculated on the basis of the following equation: [formula]

[3] = system: coronary insufficiency induced with glanduitrine in male rats (CFY strain); assay: Anti-anginose activity by the method of Nieschulz, coronary insufficiency induced with glanduitrine; type: in vivo; details: for Relative efficiency (relative anti-anginose activity): inhibition caused by Prenilamine=1; for Anti-anginose effect (inhibition %): rats, test dose 10.0 mg./kg. (compound 1), 2.0 mg./kg. (2, 3, Prenilamine), 4.0 mg./kg. (5, Lidocaine)
Protocol: Anti-anginose activity of the compounds according to the invention was tested on male rats from the CFY strain by the method of Nieschulz (Nieschulz, E. et al., Arzneimittelforschung, 5, 680/1955/). The rats weighed about 180 to 220 g. each and were narcotized prior to treatment. Electrocardiograms were registered by means of a NEK-2 ECG-instrument using a standard II output. The coronary insufficiency was induced with a 4 IE/kg. i.v. dose of glanduitrine. Prenilamine was used as a reference compound.
The acute intravenous toxicity was determined on rats of both sexes, using five animals for each doses. The relative anti-anginose activity was calculated on the basis of the following equation: [formula] Test results are shown in Table 3 below (inhibition caused by Prenilamine=1).

[4] = system: N. ischiadicus of rats; assay: Local anaesthetic activity by the method of Truant and d'Amato; type: in vivo; details: for Local anaesthetic activity EC50: N. ischiadicus of rats, motor-paralysis; for Local anaesthetic activity, relative efficiency: related to Lidocaine (1.0)
Protocol: The local anaesthetic activity was tested by the method of Truant and d'Amato (Truant, A. P. and Wiedling, S., Acta Chirurg. Scand. 116, 351/1958) on the N. ischiadicus of rats. The number of the animals showing the signs of characteristic motor-paralysis was recorded. As a control compound Lidocaine was used. This test can be carried out with water-soluble substances only.

[5] = Acute oral toxicity on mice (CFLP strain), 96 h observation; details: mouse, in vivo
Protocol: Toxicity (per os) has been determined on mice (CFLP strain) of both sexes weighing about 20 to 25 g. each, 10 mice were used for each doses and the time of observation was 96 hours.

SMILES | Smooth muscle relaxant activity EC50 [1] [µg/mL] | Smooth muscle relaxant activity, relative efficiency [1] | LD50 [2] [mg/kg] | Relative efficiency (relative anti-anginose activity) [3] | Anti-anginose effect (inhibition %) [3] [%] | Local anaesthetic activity EC50 [4] [µg/mL] | Local anaesthetic activity, relative efficiency [4] | LD50 at 96 h [5] [mg/kg] | LD50 ([2]; rats, i.v.) [mg/kg]
CC(COc1ccccc1)N[C@@H](CO)[C@@H](O)c1ccccc1 (relative stereo) [Compound 2, Threo + allothreo-1-phenyl-2-phenoxy-isopropylamino-1,3-propanediol fumarate] | 17.57 | 0.50 | 11 | 1.3 | 56 | 0.12 | 1.58 | 200 | 
CC(COc1ccccc1)N[C@@H](CO)[C@@H](O)c1ccccc1 (single isomer, unassigned; (+)) [Compound 3, (+) (Threo + allothreo)-1-phenyl-2-phenoxy-isopropylamino-1,3-propanediol fumarate] | 8.50 | 1.03 | 21.5 | 3.0 | 67 | 0.20 | 0.95 | 350 | 
CC(COc1ccccc1)N[C@H](CO)[C@H](O)c1ccccc1 (single isomer, unassigned; (-)) [Compound 4, (-) (Threo + allothreo)-1-phenyl-2-phenoxy-isopropylamino-1,3-propanediol fumarate] | 10.78 | 0.80 |  |  |  | 0.28 | 0.68 | 275 | 
CC(C)N[C@@H](CO)[C@@H](O)c1ccccc1 [Compound 1, L (+) threo-1-phenyl-2-isopropylamino-1,3-propanediol] |  |  | 140 | 3.0 | 50 |  |  | 710 | 
CC(COc1ccccc1)N[C@@H](CO)[C@H](O)c1ccccc1 (stereo partly drawn) [Compound 5, Erythro+alloerythro-1-phenyl-2-phenoxyisopropylamino-1,3-propanediol fumarate] |  |  | 45 | 3.0 | 64 |  |  | 2000 | 
CCN(CC)CC(=O)Nc1c(C)cccc1C [Lidocaine, reference compound] |  |  |  |  | 39 | 0.19 |  |  | 
COc1ccc(Cc2nccc3cc(OC)c(OC)cc23)cc1OC [Papaverine, reference compound] | 8.78 | 1.0 |  |  |  |  |  |  | 
CC(Cc1ccccc1)NCCC(c1ccccc1)c1ccccc1 (stereo not drawn) [Prenilamine, 3,3-diphenylpropyl-1-methylphenethylamine, reference compound] |  |  |  | 1.0 | 41 |  |  |  | 11.5
